# Laboratory results: patent US4231946A, “14,15-Methylene derivatives of the estrane series and methods for preparing same” (VEB Jenapharm, priority 1978, dated 1980)
# Read-outs that look alike come from different tables or passages of the source.
# How the values were obtained:
# [1] = Antiestrogenic properties; conditions: in vivo
# Text: (§1) STS 593 was weaker than ethynylestradiol by a factor of 9 in its estrogenic properties as shown by the Allen-Doisy test in ovariectomized mice. The compound was only 7% as active as the standard mestranol in producing a uterine response in infantile rats (Table 3), whereas the antiestrogenic properties exceeded those of clomiphene citrate by a factor of 1.4.
# infantile rabbit uteri = test: McPhail test, progestagenic and antiprogestagenic activities in infantile rabbit uteri; type: in vivo
# Text: The HE of 97.3% is significant (Table 5).
# Progestagenic and antiprogestagenic activities of STS 593
# in infantile rabbit uteri as shown by the McPhail test
# [2] = test system: mice (uterine fresh weight); test: Uterine activity in mice (dose for doubling uterine fresh weight); type: in vivo, mouse; conditions: p.o.
# Text: (§2) Uterine and contraceptive activities produced by selected
# (§3) 14,15-methylene-17-ol-estratrienes in mice
# inseminated rats = test: Antinidation / Nidation Inhibition Test in inseminated rats treated on the 1st day of gestation; type: in vivo, rat; conditions: for ED50 / ED5 / ED95: Rattus norvegicus, po
# Text: The favorable biological properties of the named compounds of the process according to the invention are to be further illustrated and described in the example of 3-methoxy-14β-15β-methylene-estra-1,3,5(10)-triene-17β-ol (test designation STS 593).
# (§4) Gestation and nidation inhibition expressed in % were used as parameters for antifertility effects. GHE1 (gestation inhibitory effect) and IHE1 (nidation inhibitory effect) were related to the inhibition of the total of gestations or nidations, GHE2 and IHE2 were related to the inhibition of normal gestations or nidations within each group. […] GHE1, GHE2, IHE1 and IHE2 were calculated using the following formulae: [formula] n=number of females inseminated in each group v=test group
# k=control group (sesame oil)
# x=number of all gestations (GHE1) and of normal gestations (GHE2) p. group, respectively
# (§5) f=average number (x) of all implantations (IHE1) and of normal implantations (IHE2) p. female inseminated within a group, respectively.
# The comparison of the relative incidence of gestations was performed by the Ryan test, the comparison of the number of implantations by the Dunn test.
# (§6) For GHE1 and GHE2 the ED (effective doses) for the HE (inhibitory effect) 0%, 50%, and 95% as far as possible were determined by means of the probit analysis. The ED50 for IHE1 and IHE2 were determined graphically.
# mice = test: Contraceptive activity in mice, single application on 1st day of gestation; type: in vivo, mouse; conditions: mice, 10 mg/kg p.o., single application
# Method: as §4, §5, §6, §2, §3
# [3] = test system: infantile female Wistar rats; test: Uterine activity in infantile female Wistar rats; type: in vivo, Wistar rat; conditions: for Uterine weight (-x): n=10
# Text: as §1
# Comparison of uterine activity in infantile female
# Wistar rats produced by STS 593 and mestranol
# [4] = General statement on antifertility effects and separation from uterine, estrogenic and antigonadotrophic activities; type: in vivo; conditions: compared to mestranol
# rats (testicular mass) = test: Antigonadotrophic activity (testicular mass) in rats; type: in vivo, rat; conditions: for ED50: Rattus norvegicus; for IE %: testicular mass
# Method: The effective dose for the HE50 was close to 0.65 mg/kg of body-wt./5 d, while mestranol has the same effect at a dose as low as 0.15 mg/kg of body-wt./5 d.
# ovariectomized mice = test: Allen-Doisy test in ovariectomized mice (estrogenic properties); type: in vivo, mouse
# Text: as §1
# [5] = 10 mg/kg p.o. + progesterone 4 mg/animal s.c., over 4 days, n=5
# [6] = 1st trial 1975, 0.1 mg/kg p.o., n=12
# [7] = 1st trial 1975, 0.3 mg/kg p.o., n=12
# [8] = 1st trial 1975, 0.9 mg/kg p.o., n=12
# [9] = 2nd trial 1978, 0.08 mg/kg p.o., n=10
# [10] = 2nd trial 1978, 0.16 mg/kg p.o., n=10
# [11] = 2nd trial 1978, 0.32 mg/kg p.o., n=10
# [12] = 2nd trial 1978, 0.64 mg/kg p.o., n=10
# [13] = 2nd trial 1978, 1.28 mg/kg p.o., n=10
# [14] = total dose 0.25 mg/kg of body-wt. p.o., n=9
# [15] = total dose 0.50 mg/kg of body-wt. p.o., n=10
# [16] = total dose 1.00 mg/kg of body-wt. p.o., n=10
smiles,measurement,setting,value
"COc1ccc2c(c1)CC[C@@H]1[C@@H]2CC[C@]2(C)[C@@H](O)C[C@H]3C[C@@]312 [STS 593, 3-methoxy-14β,15β-methylene-estra-1,3,5(10)-triene-17β-ol]",Antiestrogenic properties: factor exceeding clomiphene citrate,[1],1.4 factor
same,Antiestrogenic properties (in words),"[1]; listed as 3-methoxy-14β,15β-methylene-estra-1,3,5(10)-triene-17β-ol",marked antiestrogenic properties
same,Antiestrogenic properties (in words),"[1]; listed as 3-methoxy-14β-15β-methylene-estra-1,3,5(10)-triene-17β-ol",produces antiestrogenic and antiprogestagenic effects
same,McPhail index (-x),"infantile rabbit uteri; 2 mg/kg p.o. + progesterone 4 mg/animal s.c., over 4 days, n=6",3.8
same,McPhail index (-x),"infantile rabbit uteri; 2 mg/kg p.o. alone, total dose over 4 days, n=5",0
same,HE %,infantile rabbit uteri; [5],26.7%
same,McPhail index (-x),infantile rabbit uteri; [5],2.2
same,McPhail index (-x),"infantile rabbit uteri; 50 mg/kg p.o. + progesterone 4 mg/animal s.c., over 4 days, n=6",0.08
same,HE %,"infantile rabbit uteri; 50 mg/kg p.o. + progesterone 4 mg/animal s.c., over 4 days, significant",97.3%
same,Antiprogestagenic effects (in words),"infantile rabbit uteri; rabbit, in vivo",produces antiestrogenic and antiprogestagenic effects
same,Progestagenic activity,"infantile rabbit uteri; rabbit, in vivo",lacking in progestagenic activity
same,Antiprogestagenic properties,"infantile rabbit uteri; rabbits, oral, 50 mg/kg",showed antiprogestanenic properties
same,Total dose for doubling uterine fresh weight,[2],0.45 μg/animal
same,"Female rats pregnant of n, normal",inseminated rats; [6],10
same,"Female rats pregnant of n, total",inseminated rats; [6],10
same,GHE1,inseminated rats; [6],16.7%
same,GHE2,inseminated rats; [6],16.7%
same,IHE1,inseminated rats; [6],30.0%
same,IHE2,inseminated rats; [6],34.7%
same,"Implantations per female (-x), normal",inseminated rats; [6],8.2
same,"Implantations per female (-x), total",inseminated rats; [6],8.8
same,"Female rats pregnant of n, normal",inseminated rats; [7],5
same,"Female rats pregnant of n, total",inseminated rats; [7],8
same,GHE1,inseminated rats; [7],33.3%
same,GHE2,inseminated rats; [7],58.3%
same,IHE1,inseminated rats; [7],70.0%
same,IHE2,inseminated rats; [7],72.7%
same,"Implantations per female (-x), normal",inseminated rats; [7],3.4
same,"Implantations per female (-x), total",inseminated rats; [7],3.8
same,"Female rats pregnant of n, normal",inseminated rats; [8],3
same,"Female rats pregnant of n, total",inseminated rats; [8],6
same,GHE1,inseminated rats; [8],50.0%
same,GHE2,inseminated rats; [8],75.0%
same,IHE1,inseminated rats; [8],86.7%
same,IHE2,inseminated rats; [8],94.7%
same,"Implantations per female (-x), normal",inseminated rats; [8],0.7
same,"Implantations per female (-x), total",inseminated rats; [8],1.7
same,"Female rats pregnant of n, normal",inseminated rats; [9],9
same,"Female rats pregnant of n, total",inseminated rats; [9],9
same,GHE1,inseminated rats; [9],10%
same,GHE2,inseminated rats; [9],10%
same,IHE1,inseminated rats; [9],18.5%
same,IHE2,inseminated rats; [9],19.2%
same,"Implantations per female (-x), normal",inseminated rats; [9],10.5
same,"Implantations per female (-x), total",inseminated rats; [9],10.6
same,"Female rats pregnant of n, normal",inseminated rats; [10],2
same,"Female rats pregnant of n, total",inseminated rats; [10],10
same,GHE1,inseminated rats; [10],0%
same,GHE2,inseminated rats; [10],80%
same,IHE1,inseminated rats; [10],32.3%
same,IHE2,inseminated rats; [10],82.3%
same,"Implantations per female (-x), normal",inseminated rats; [10],2.3
same,"Implantations per female (-x), total",inseminated rats; [10],8.8
same,"Female rats pregnant of n, normal",inseminated rats; [11],3
same,"Female rats pregnant of n, total",inseminated rats; [11],5
same,GHE1,inseminated rats; [11],50%
same,GHE2,inseminated rats; [11],70%
same,IHE1,inseminated rats; [11],74.6%
same,IHE2,inseminated rats; [11],86.1%
same,"Implantations per female (-x), normal",inseminated rats; [11],1.8
same,"Implantations per female (-x), total",inseminated rats; [11],3.3
same,"Female rats pregnant of n, normal",inseminated rats; [12],0
same,"Female rats pregnant of n, total",inseminated rats; [12],4
same,GHE1,inseminated rats; [12],60%
same,GHE2,inseminated rats; [12],100%
same,IHE1,inseminated rats; [12],87.7%
same,IHE2,inseminated rats; [12],100%
same,"Implantations per female (-x), normal",inseminated rats; [12],0
same,"Implantations per female (-x), total",inseminated rats; [12],1.6
same,"Female rats pregnant of n, normal",inseminated rats; [13],0
same,"Female rats pregnant of n, total",inseminated rats; [13],2
same,GHE1,inseminated rats; [13],80%
same,GHE2,inseminated rats; [13],100%
same,IHE1,inseminated rats; [13],88.5%
same,IHE2,inseminated rats; [13],100%
same,"Implantations per female (-x), normal",inseminated rats; [13],0
same,"Implantations per female (-x), total",inseminated rats; [13],1.5
same,ED50,"inseminated rats; according to trial No. 1, read-out: ED50 for IHE1",0.175 mg/kg
same,ED50,"inseminated rats; according to trial No. 1, read-out: ED50 for IHE2",0.155 mg/kg
same,ED50,"inseminated rats; determined graphically, STS 593 from trial No. 2, read-out: ED 50 for IHE1",0.22 mg/kg
same,ED50,"inseminated rats; determined graphically, STS 593 from trial No. 2, read-out: ED 50 for IHE2",0.112 mg/kg
same,ED5,"inseminated rats; probit analysis, STS 593 from trial No. 2, read-out: ED 05 for GHE1",0.078 mg/kg
same,ED5,"inseminated rats; probit analysis, STS 593 from trial No. 2, read-out: ED 05 for GHE2",0.044 mg/kg
same,ED50,"inseminated rats; probit analysis, STS 593 from trial No. 2, read-out: ED 50 for GHE1",0.474 mg/kg
same,ED50,"inseminated rats; probit analysis, STS 593 from trial No. 2, read-out: ED 50 for GHE2",0.147 mg/kg
same,ED95,"inseminated rats; probit analysis, STS 593 from trial No. 2, read-out: ED 95 for GHE1",2.59 mg/kg
same,ED95,"inseminated rats; probit analysis, STS 593 from trial No. 2, read-out: ED 95 for GHE2",0.454 mg/kg
same,"Contraceptive activity related to IHE1, compared to ethynylestradiol",inseminated rats; female rat,nearly double the activity of ethynylestradiol
same,"Contraceptive activity related to IHE1, compared to mestranol",inseminated rats; female rat,in the range of that of mestranol
same,"THE, % after single application of 10 mg/kg of body-wt. on the 1st day of gestation p.o.",mice,80.2%
same,"Uterine response, activity relative to mestranol",[3]; infantile rats,7%
same,Uterine weight (-x),[3]; total dose 0.1 per animal over 3 days p.o.,27.63 mg
same,Uterine weight (-x),[3]; total dose 1.0 per animal over 3 days p.o.,52.40 mg
same,Uterine weight (-x),[3]; total dose 10.0 per animal over 3 days p.o.,75.90 mg
same,"Separation of contraceptive properties and undesirable (estrogenic, antigonadotrophic, progestagenic) side-effects vs mestranol",[4],more favorable separation
same,ED50,"rats (testicular mass); 120 h, rats, read-out: Effective dose for the HE50, antigonadotrophic",~0.65 mg/kg
same,ED50,"rats (testicular mass); po, antigonadotrophic, total dose p.o., read-out: HE 50 (the source's name)",0.65 mg/kg
same,Antigonadotrophic effect compared to mestranol,rats (testicular mass); rats,four times weaker than mestranol
same,IE %,rats (testicular mass); [14],18.1%
same,IE %,rats (testicular mass); [15],39.6%
same,IE %,rats (testicular mass); [16],68.9%
same,Testicular mass (-x ± s-x),rats (testicular mass); [14],312.4 ± 42.5 mg
same,Testicular mass (-x ± s-x),rats (testicular mass); [15],272.3 ± 37.7 mg
same,Testicular mass (-x ± s-x),rats (testicular mass); [16],217.6 ± 24.2 mg
same,Estrogenic properties: factor weaker than ethynylestradiol,ovariectomized mice,9 factor
